From ChEMBL document CHEMBL1141739, “Donnaienin, a New Acetogenin Bearing a Hydroxylated Tetrahydrofuran Ring” (J Nat Prod, 1998) come the findings set out here.

≈ marks a conversion by molar mass, not a printed value. Some results are limits rather than exact numbers.

What all share (type): functional, cell-based
In one assay the test system is HCT-8. The experiment in a line: Cytotoxicity against human HCT8 cells after 5 days by MTT method. The settings on record: HCT-8, 120 h. On the technique in general: Formazan colour is commonly taken as a measure of viable cells.
The nature of assay [1]: Cytotoxicity against human Bel cells after 5 days by MTT method. Particulars: 120 h.
The subject of a further assay is KB. The experiment in a line: Cytotoxicity against human KB cells after 5 days by MTT method. Particulars: 120 h.

`CCCCCCCCCCCCCC[C@H](O)[C@@H]1C[C@@H](O)[C@@H]([C@@H](O)CC[C@@H](O)CCCCC[C@@H](O)CC2=C[C@H](C)OC2=O)O1` [DONNAIENIN]: the IC50 (commonly the concentration at which inhibition is half-maximal) in the assay on HCT-8 was over 10 µg/mL; in assay [1] it was 6.7 µg/mL (≈ 10.9 µM); in the assay with KB, over 10 µg/mL.
